Patent US4983616A, “Hexahydropyrrolo(2,3-B)indole carbamates, ureas, amides and related compounds” (priority 1990, dated 1991)
Where a name gives a salt, the structure may show the parent alone. Read-outs that look alike come from different tables or passages of the source.

Key:
[1] = target: T1, Brain AChE (acetylcholinesterase, rat striatum) (Rattus norvegicus, UniProt P37136); assay: In Vitro Inhibition of Acetylcholinesterase Activity in Rat Striatum; assay type: biochemical, rat (male Wistar)
T1 construct: corpora striata dissected free, weighed and homogenized in 19 volumes; from tissue; host or cells: corpora striata of male Wistar rats, whole homogenate
T1 sequence (P37136 32-614): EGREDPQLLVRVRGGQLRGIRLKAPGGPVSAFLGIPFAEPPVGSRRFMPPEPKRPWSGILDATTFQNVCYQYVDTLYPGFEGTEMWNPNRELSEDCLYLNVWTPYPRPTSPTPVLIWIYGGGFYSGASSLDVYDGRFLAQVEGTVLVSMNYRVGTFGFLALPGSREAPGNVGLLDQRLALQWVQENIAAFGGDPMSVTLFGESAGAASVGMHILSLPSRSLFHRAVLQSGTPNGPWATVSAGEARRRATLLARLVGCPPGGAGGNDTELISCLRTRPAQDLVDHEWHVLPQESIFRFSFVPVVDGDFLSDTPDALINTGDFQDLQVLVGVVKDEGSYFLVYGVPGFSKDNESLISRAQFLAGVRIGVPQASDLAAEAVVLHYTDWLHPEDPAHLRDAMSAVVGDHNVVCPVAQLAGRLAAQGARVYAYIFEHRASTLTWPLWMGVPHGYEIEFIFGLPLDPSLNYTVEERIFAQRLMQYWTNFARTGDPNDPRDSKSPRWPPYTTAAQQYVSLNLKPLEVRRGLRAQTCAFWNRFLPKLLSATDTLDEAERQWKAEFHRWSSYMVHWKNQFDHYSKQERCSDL
Protocol: Cholinesterases are found throughout the body, both in the brain and in serum. However, only brain acetylcholinesterase (AChE) distribution is correlated with central cholinergic innervation.
In Vitro Inhibition of Acetylcholinesterase Activity in Rat Striatum
The method described below was used in this invention for assaying cholinesterase activity.
1. 0.05M Phosphate buffer, pH 7.2
(a) 6.85 g NaH2 PO4 .cndot.H2 O/100 ml distilled H2 O
(c) add (a) to (b) until pH reaches 7.2
(a) 9.9 mg 5,5-dithiobisnitrobenzoic acid (DTNB) (0.25 mM)
(b) 99 mg s-acetylthiocholine chloride (5 mM)
(c) q.s. to 100 ml with 0.05M phosphate buffer, pH 7.2 (reagent 1)
3. […]
Following the 10 minute preincubation of the tissue (enzyme) with the inhibitor, the samples are mixed with the substrate chromogen buffer by the ABA-100. Using the indicated instrument settings the ABA-100 automatically reads the color reaction and prints out the results in enzyme units after 15 minutes.
2. The enzyme activity can also be measured with Gilford 250 spectrophotometer. […]
The uninhibited activity of the enzyme (tissue homogenate) is first determined. […] The reaction rate is determined by the slope of the recorded absorbance change. […]

[2] = test system: Scopolamine Induced Memory Deficit; assay type: in vivo, mice
Protocol: In this assay mice are tested for their ability to remember an unpleasant stimulus for a period of 24 hours. A mouse is placed in a chamber that contains a dark compartment; a strong incandescent light drives it to the dark compartment, where an electric shock is administered through metal plates on the floor. The animal is removed from the testing apparatus and tested again, 24 hours later, for the ability to remember the electric shock.
If scopolamine, an anticholinergic that is known to cause memory impairment, is administered before an animal's initial exposure to the test chamber, the animal re-enters the dark compartment shortly after being placed in the test chamber 24 hours later. This effect of scopolamine is blocked by an active test compound, resulting in a greater interval before re-entry into the dark compartment.
The results for an active compound are expressed as the percent of a group of animals in which the effect of scopolamine is blocked, as manifested by an increased interval between being placed in the test chamber and re-entering the dark compartment.
Results of this assay for some of the compounds of this invention and those for tacrine and pilocarpine (reference compounds) are presented in Table 2.

[3] = 0.31 mg/kg of body weight, s.c, mice, 24 hours
[4] = 5.0 mg/kg of body weight, s.c, mice, 24 hours

Compound | IC50 [1] | % of Animals with Scopolamine Induced Memory Deficit Reversal [2, 3] | % of Animals with Scopolamine Induced Memory Deficit Reversal [2, 4] | other results
CN1CCC2(C)c3cc(NC(=O)Oc4ccccc4)ccc3N(C)C12.O=C(O)C(=O)O (stereo not shown) [1,2,3,3a,8,8a-Hexahydro-5-(phenoxycarbonylamino)-1,3a,8-trimethylpyrrolo[2,3-b]indole oxalate] | 14 µM | 40% | 21% | % of Animals with Scopolamine Induced Memory Deficit Reversal ([2]; 1.16 mg/kg of body weight, s.c, mice, 24 hours): 53%
CN1CCC2(C)c3cc(NC(=O)Oc4ccc(Cl)cc4)ccc3N(C)C12 (stereo not shown) [5-(4-Chlorophenoxycarbonylamino)-1,2,3,3a,8,8a-hexahydro-1,3a,8-trimethylpyrrolo[2,3-b]indole oxalate] | 1.1 µM | – | – | –
CN1CCC2(C)c3cc(NC(=O)OCc4ccccc4)ccc3N(C)C12 (stereo not shown) [5-(Benzoxycarbonylamino)-1,2,3,3a,8,8a-hexahydro-1,3a,8-trimethylpyrrolo[2,3-b]indole] | – | – | – | % of Animals with Scopolamine Induced Memory Deficit Reversal ([2]; 0.3 mg/kg of body weight, s.c, mice, 24 hours): 28%; % of Animals with Scopolamine Induced Memory Deficit Reversal ([2]; 1.0 mg/kg of body weight, s.c, mice, 24 hours): 21%; % of Animals with Scopolamine Induced Memory Deficit Reversal ([2]; 3.0 mg/kg of body weight, s.c, mice, 24 hours): 21%
CN1CCC2(C)c3cc(NC(=O)OC(C)(C)C)ccc3N(C)C12.O=C(O)C(=O)O (stereo not shown) [5-(t-Butoxycarbonylamino)-1,2,3,3a,8,8a-hexahydro-1,3a,8-trimethylpyrrolo[2,3-b]indole oxalate] | – | 33% | 27% | % of Animals with Scopolamine Induced Memory Deficit Reversal ([2]; 1.25 mg/kg of body weight, s.c, mice, 24 hours): 20%
CC[C@@H]1C(=O)OC[C@@H]1Cc1cncn1C [Pilocarpine, reference compound] | – | – | 13% | –
Nc1c2c(nc3ccccc13)CCCC2 [Tacrine, reference compound] | – | – | – | % of Animals with Scopolamine Induced Memory Deficit Reversal ([2]; mouse, in vivo): 13%
